Experimental findings from ChEMBL document CHEMBL1123970, “Ab initio molecular electrostatic potentials of perillartine analogues: implications for sweet-taste receptor recognition” (J Med Chem, 1988) are described below.

The assay in a line: Compound was tasted for its sweet potency, expressed with relative to sucrose.

Each structure is given as a SMILES string.

Regarding `O/N=C/C1=CCCC1`, the Sweetness potency was determined as 55.
The result for `CC1=CCC(/C=N/O)=CC1` reads 500; that for `COCC1=CCC(/C=N/O)=CC1`, 225; that for `C/C=C(C)/C(C)=N/O`, 140.
The result for `O/N=C/C1=CCC=CC1` reads 200; that for `O/N=C/C1=CC=CCC1`, 90; that for `C/C=C(C)/C=N/O`, 40.
The result for `O/N=C/C1=CCCCC1` reads 55.
